The values below are quoted from earlier work in US7094421B2, “Plaster containing 4-biphenylacetic acid” (Teikoku Seiyaki Co., Ltd., priority 2000, dated 2006).

The conditions of this series: solvent crotamiton.

With `O=C(O)Cc1ccc(-c2ccccc2)cc1` [4-biphenylacetic acid], the “solubility of 4-biphenylacetic acid in crotamiton” value is “about 7%”.
